# Laboratory results reported in article PMC10022191, “Safety, tolerability, pharmacokinetics, and antiviral activity of the novel core protein allosteric modulator ZM-H1505R (Canocapavir) in chronic hepatitis B patients: a randomized multiple-dose escalation trial” (BMC Medicine, 2023).
# Entries after “also recorded” stand apart in the source; their conditions may differ.
# Assay: phase 1b trial: adverse reactions and tolerability in CHB patients
# Type: in vivo, human
# Procedure: This was a randomized, open-label, placebo-controlled, phase 1b study (Clinical Trial Registration Number: NCT05470829; Chinese Clinical Trial Registration Number: CTR20210686), which was conducted at the Phase I Clinical Research Center, The First Hospital of Jilin University (Jilin, China), during the period from May to November of 2021. In order to minimize the safety risk of Canocapavir, an adaptive ascending dosing strategy was adopted for Canocapavir treatment in this study. The second and third assigned doses were initiated only after the safety data from the previous dose was reviewed and determined to be safe by the Principal Investigator and the Sponsor on day 8 postdosing (post drug administration days). Canocapavir was administered at the Clinical Research Center on days 1–8 and day 28 and at home on days 9–27 under the same conditions (fixed administration time and fasting condition). Patients were required to visit the facility for follow-up on days 15, 22, 27, 43 ± 1, and 57 ± 2 postdosing. The study protocol and informed consent forms were prepared according to the principles of the Declaration of Helsinki. The study protocol was approved by the Institutional Review Board of the First Hospital of Jilin University (approval number: 20Y201-006). All recruited patients provided written informed consent before participating in any study-related procedures.
# A total of 30 CHB patients were recruited in this study and were randomly assigned into three cohorts (N = 10, each). In these three cohorts, the patients (in a ratio of 4:1) received 50, 100, or 200 mg of Canocapavir or placebo once a day for 28 consecutive days under fasting conditions, followed by a 28-day follow-up (Fig. 1). The patients, care providers, and those assessing outcomes were blinded during the study. This random process was completed in an electronic data capture system, and the details are shown in Additional file 1.
# To examine possible adverse events (AEs) and adverse reactions (an adverse event is definitely, probably, or possibly related to the drug) in this study, the recruited patients underwent regular clinical laboratory testing, 12-lead electrocardiograms, examination of vital signs, abdominal ultrasound, and regular physical examinations, using the baseline data as a control. The severity of AEs and laboratory abnormalities were graded according to the Common Terminology Criteria for Adverse Events (CTCAE), version 5.0, which defines toxicity criteria. The AEs were coded using the Medical Dictionary for Regulatory Activities, version 24.1 (McLean, VA, USA).
structure (smiles),measurement,setting,value
O=C1CO[C@H](c2cn(-c3ccc(Br)cc3)nc2-c2ccc(F)cc2)N1CCc1ccc2[nH]c(=O)[nH]c2c1 [Canocapavir],"Increased aspartate aminotransferase, cases","100 mg q.d., 28 days",2 case
same,"Increased aspartate aminotransferase, grade I, number of subjects","100 mg q.d., 28 days",2 n
same,"Increased aspartate aminotransferase, grade I, percent of subjects","100 mg q.d., 28 days",25.00%
same,"Increased aspartate aminotransferase, grade II, number of subjects","100 mg q.d., 28 days",0 n
same,"Increased aspartate aminotransferase, grade II, percent of subjects","100 mg q.d., 28 days",0%
same,"Increased aspartate aminotransferase, number of subjects (%)","100 mg q.d., 28 days",2 (25) n (%)
same,"Increased bilirubin, cases","100 mg q.d., 28 days",0 case
same,"Increased bilirubin, grade I, number of subjects","100 mg q.d., 28 days",0 n
same,"Increased bilirubin, grade I, percent of subjects","100 mg q.d., 28 days",0%
same,"Increased bilirubin, number of subjects (%)","100 mg q.d., 28 days",0 (0) n (%)
same,"Increased creatinine, cases","100 mg q.d., 28 days",0 case
same,"Increased creatinine, grade I, number of subjects","100 mg q.d., 28 days",0 n
same,"Increased creatinine, grade I, percent of subjects","100 mg q.d., 28 days",0%
same,"Increased creatinine, number of subjects (%)","100 mg q.d., 28 days",0 (0) n (%)
same,"Increased γ-glutamyltransferase, cases","100 mg q.d., 28 days",1 case
same,"Increased γ-glutamyltransferase, grade I, number of subjects","100 mg q.d., 28 days",1 n
same,"Increased γ-glutamyltransferase, grade I, percent of subjects","100 mg q.d., 28 days",12.50%
same,"Increased γ-glutamyltransferase, number of subjects (%)","100 mg q.d., 28 days",1 (12.5) n (%)
same,"Rash, cases","100 mg q.d., 28 days",1 case
same,"Rash, grade I, number of subjects","100 mg q.d., 28 days",1 n
same,"Rash, grade I, percent of subjects","100 mg q.d., 28 days",12.50%
same,"Rash, number of subjects (%)","100 mg q.d., 28 days",1 (12.5) n (%)
same,"Total adverse reactions, cases","100 mg q.d., 28 days",10 case
same,"Total adverse reactions, number of subjects (%)","100 mg q.d., 28 days",5 (62.5) n (%)
same,"maximum ALT level, patient E3010","100 mg q.d., day 15, baseline 144.9 U/L",385.4 U/L
same,"Adverse reactions, grade I, number of subjects","200 mg q.d., 28 days",3 n
same,"Adverse reactions, grade I, percent of subjects","200 mg q.d., 28 days",37.50%
same,"Adverse reactions, grade II, number of subjects","200 mg q.d., 28 days",0 n
same,"Adverse reactions, grade II, percent of subjects","200 mg q.d., 28 days",0%
same,"Adverse reactions, grade III, number of subjects","200 mg q.d., 28 days",1 n
same,"Adverse reactions, grade III, percent of subjects","200 mg q.d., 28 days",12.50%
same,"Adverse reactions, total (all grades), number of subjects","200 mg q.d., 28 days",4 n
same,"Adverse reactions, total (all grades), percent of subjects","200 mg q.d., 28 days",50.0%
same,"Decreased neutrophil count, cases","200 mg q.d., 28 days",0 case
same,"Decreased neutrophil count, grade II, number of subjects","200 mg q.d., 28 days",0 n
same,"Decreased neutrophil count, grade II, percent of subjects","200 mg q.d., 28 days",0%
same,"Decreased neutrophil count, grade III, number of subjects","200 mg q.d., 28 days",0 n
same,"Decreased neutrophil count, grade III, percent of subjects","200 mg q.d., 28 days",0%
same,"Decreased neutrophil count, number of subjects (%)","200 mg q.d., 28 days",0 (0) n (%)
same,"Decreased platelet count, cases","200 mg q.d., 28 days",0 case
same,"Decreased platelet count, grade I, number of subjects","200 mg q.d., 28 days",0 n
same,"Decreased platelet count, grade I, percent of subjects","200 mg q.d., 28 days",0%
same,"Decreased platelet count, number of subjects (%)","200 mg q.d., 28 days",0 (0) n (%)
same,"Decreased serum phosphorus, cases","200 mg q.d., 28 days",1 case
same,"Decreased serum phosphorus, grade I, number of subjects","200 mg q.d., 28 days",1 n
same,"Decreased serum phosphorus, grade I, percent of subjects","200 mg q.d., 28 days",12.50%
same,"Decreased serum phosphorus, number of subjects (%)","200 mg q.d., 28 days",1 (12.5) n (%)
same,"Decreased white blood cell count, cases","200 mg q.d., 28 days",0 case
same,"Decreased white blood cell count, grade II, number of subjects","200 mg q.d., 28 days",0 n
same,"Decreased white blood cell count, grade II, percent of subjects","200 mg q.d., 28 days",0%
same,"Decreased white blood cell count, number of subjects (%)","200 mg q.d., 28 days",0 (0) n (%)
same,"Hypertriglyceridemia, cases","200 mg q.d., 28 days",2 case
same,"Hypertriglyceridemia, grade III, percent of subjects","200 mg q.d., 28 days",12.50%
same,"Hypertriglyceridemia, number of subjects (%)","200 mg q.d., 28 days",1 (12.5) n (%)
same,"Increased alanine aminotransferase, cases","200 mg q.d., 28 days",3 case
same,"Increased alanine aminotransferase, grade I, number of subjects","200 mg q.d., 28 days",3 n
same,"Increased alanine aminotransferase, grade I, percent of subjects","200 mg q.d., 28 days",37.50%
same,"Increased alanine aminotransferase, grade II, number of subjects","200 mg q.d., 28 days",0 n
same,"Increased alanine aminotransferase, grade II, percent of subjects","200 mg q.d., 28 days",0%
same,"Increased alanine aminotransferase, number of subjects (%)","200 mg q.d., 28 days",3 (37.5) n (%)
same,"Increased aspartate aminotransferase, cases","200 mg q.d., 28 days",1 case
same,"Increased aspartate aminotransferase, grade I, number of subjects","200 mg q.d., 28 days",1 n
same,"Increased aspartate aminotransferase, grade I, percent of subjects","200 mg q.d., 28 days",12.50%
same,"Increased aspartate aminotransferase, grade II, number of subjects","200 mg q.d., 28 days",0 n
same,"Increased aspartate aminotransferase, grade II, percent of subjects","200 mg q.d., 28 days",0%
same,"Increased aspartate aminotransferase, number of subjects (%)","200 mg q.d., 28 days",1 (12.5) n (%)
same,"Increased bilirubin, cases","200 mg q.d., 28 days",1 case
same,"Increased bilirubin, grade I, number of subjects","200 mg q.d., 28 days",1 n
same,"Increased bilirubin, grade I, percent of subjects","200 mg q.d., 28 days",12.50%
same,"Increased bilirubin, number of subjects (%)","200 mg q.d., 28 days",1 (12.5) n (%)
same,"Increased creatinine, cases","200 mg q.d., 28 days",0 case
same,"Increased creatinine, grade I, number of subjects","200 mg q.d., 28 days",0 n
same,"Increased creatinine, grade I, percent of subjects","200 mg q.d., 28 days",0%
same,"Increased creatinine, number of subjects (%)","200 mg q.d., 28 days",0 (0) n (%)
same,"Increased γ-glutamyltransferase, cases","200 mg q.d., 28 days",0 case
same,"Increased γ-glutamyltransferase, grade I, number of subjects","200 mg q.d., 28 days",0 n
same,"Increased γ-glutamyltransferase, grade I, percent of subjects","200 mg q.d., 28 days",0%
same,"Increased γ-glutamyltransferase, number of subjects (%)","200 mg q.d., 28 days",0 (0) n (%)
same,"Rash, cases","200 mg q.d., 28 days",0 case
same,"Rash, grade I, number of subjects","200 mg q.d., 28 days",0 n
same,"Rash, grade I, percent of subjects","200 mg q.d., 28 days",0%
same,"Rash, number of subjects (%)","200 mg q.d., 28 days",0 (0) n (%)
same,"Total adverse reactions, cases","200 mg q.d., 28 days",8 case
same,"Total adverse reactions, number of subjects (%)","200 mg q.d., 28 days",4 (50) n (%)
same,relation of incidence of adverse reactions to dose,50–200 mg q.d.,not significantly correlated to its increased dose
same,safety and tolerability,"50–200 mg q.d., 28 days",well tolerated; also recorded: safe and tolerated
same,serious adverse events,"50–200 mg q.d., 28 days",no serious adverse events; also recorded: No serious AE
same,withdrawal from the study,"50–200 mg q.d., 28 days",no patients withdrew
same,patients with a grade I adverse reaction (elevation of ALT or AST),across dose cohorts,12.5–37.5%
same,cases of AEs in the Canocapavir cohort,"all doses, 24 patients",38 cases
same,cases of adverse reactions in the Canocapavir cohort,"all doses, 24 patients",24 cases
same,patients with AEs in the Canocapavir cohort,"all doses, 24 patients",75%
same,patients with adverse reactions in the Canocapavir cohort,"all doses, 24 patients",50%
